According to the supplement of paper PMC11208160:

Experiment: recombinant UMI read abundance after kanamycin selection (control-corrected) (log10(CPM+1)); higher = more efficient recombination; extreme values may be limits of the assay; sequences stand for … in AGTGCAGAGAAAATCGGCCAGTTTTCTCTGCCTGCAGTCCGCATGCCGTGGGACCCCTTGGGTTCTAACCTGTTGCCTAGATTTATGCAGCGGACTGCCTTTCTCCCAAAGTGATAAACCGG…AGGTTGGTTTCACT; site = the 11-nt donor
Outline: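 In Escherichia coli, a pool of donor and donor-binding-loop pairs, each with a 12-nt UMI, was tested for the IS621 bridge recombinase. Plating was on IPTG (0.07 mM) plus kanamycin, or without selection, in two replicates. Recombinant UMIs were amplified by PCR across the donor–target junction and sequenced, and counts were reported as log10(CPM+1) after averaging and control-derived scaling.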
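Also: IS621 bridge recombinase in Escherichia coli cells against a fixed T5 target plasmid.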

Sequence | recombinant UMI read abundance (log10)
CTACTAACATGGACCGGTTTTCCCGGTAATCCGTATTTGGA (site CTACTAACTTC) | 1.69
CTACTAACATGGACCGGTTTTCCCGGTAATCCGTATTTGGA (site CTACTAACTTG) | 1.13
CTACTAACATGGACCGGTTTTCCCGGTAATCCGTATTTGGA (site CTACTAACTTT) | 1.96
CTACTAACATGGACCGGTTTTCCCGGTAATCCGTATTTGGA (site CTACTACCTTC) | 0.0182
CTACTAACATGGACCGGTTTTCCCGGTAATCCGTATTTGGA (site CTACTAGCTTC) | 0.689
CTACTAACATGGACCGGTTTTCCCGGTAATCCGTATTTGGA (site CTACTATCTTC) | 1.4
CTACTAACATGGACCGGTTTTCCCGGTAATCCGTATTTGGA (site CTACTCACTTC) | 0.0167
CTACTAACATGGACCGGTTTTCCCGGTAATCCGTATTTGGA (site CTACTGACTTC) | 0.00472
CTACTAACATGGACCGGTTTTCCCGGTAATCCGTATTTGGA (site CTACTTACTTC) | 0.176
CTACTAACATGGACCGGTTTTCCCGGTAATCCGTATTTGGA (site CTAGTAACTTC) | 0.141
CTACTAACATGGACCGGTTTTCCCGGTAATCCGTATTTGGA (site CTATTAACTTC) | 1.29
CTACTAACATGGACCGGTTTTCCCGGTAATCCGTATTTGGA (site CTCCTAACTTC) | 0.373
CTACTAACATGGACCGGTTTTCCCGGTAATCCGTATTTGGA (site CTGCTAACTTC) | 0.331
CTACTAACATGGACCGGTTTTCCCGGTAATCCGTATTTGGA (site CTTCTAACTTC) | 0.11
CTACTAACATGGACCGGTTTTCCCGGTAATCCGTATTTGGA (site GTACTAACTTC) | 0.0739
CTACTAACATGGACCGGTTTTCCCGGTAATCCGTATTTGGA (site TTACTAACTTC) | 0.417
CTACTAGCATGGACCGGTTTTCCCGGTAATCCGTATTTGAC (site CTACTAGCTGT) | 2.64
CTACTAGCATGGACCGGTTTTCCCGGTAATCCGTATTTGAC (site CTAGTATCTGT) | 0
CTACTATCATGGACCGGTTTTCCCGGTAATCCGTATTTGAA (site CTACTATCTTT) | 2.45

Sequence | recombinant UMI read abundance (log10)
CTACTATCATGGACCGGTTTTCCCGGTAATCCGTATTTGAA (site CTAGTATCTGT) | 0
CTACTCACATGGACCGGTTTTCCCGGTAATCCGTATTTGGA (site CTACTAACTTC) | 0.63
CTACTCACATGGACCGGTTTTCCCGGTAATCCGTATTTGGA (site CTACTCACTTC) | 2.16
CTACTCACATGGACCGGTTTTCCCGGTAATCCGTATTTGGA (site CTACTGACTTC) | 0.0219
CTACTCACATGGACCGGTTTTCCCGGTAATCCGTATTTGGA (site CTACTTACTTC) | 0.361
CTAGAAACATGGACCGGTTTTCCCGGTAATCCGTATTTGAC (site CTAGAAACTGT) | 2.76
CTAGAAACATGGACCGGTTTTCCCGGTAATCCGTATTTGAC (site CTAGTATCTGT) | 0.00659
CTAGAAACATGGACCGGTTTTCCCGGTAATCCGTATTTGCA (site CTAGAAACTTG) | 2.59
CTAGAAACATGGACCGGTTTTCCCGGTAATCCGTATTTGCA (site CTCGAAACTTG) | 0
CTAGAAACATGGACCGGTTTTCCCGGTAATCCGTATTTGCA (site CTGGAAACTTG) | 1.83
CTAGAAACATGGACCGGTTTTCCCGGTAATCCGTATTTGCA (site CTTGAAACTTG) | 0.422
CTAGAATCATGGACCGGTTTTCCCGGTAATCCGTATTTGAG (site CTAGAATCTCT) | 3.11
CTAGAATCATGGACCGGTTTTCCCGGTAATCCGTATTTGAG (site CTAGTATCTGT) | 0
CTAGACCCATGGACCGGTTTTCCCGGTAATCCGTATTTGGA (site CTAGACCCTTC) | 0.351
CTAGATTCATGGACCGGTTTTCCCGGTAATCCGTATTTGGA (site CTAGATTCTTC) | 2.84
CTAGCATCATGGACCGGTTTTCCCGGTAATCCGTATTTGCC (site CTAGCATCTGG) | 2.4
CTAGCATCATGGACCGGTTTTCCCGGTAATCCGTATTTGCC (site CTAGTATCTGT) | 0
CTAGCCACATGGACCGGTTTTCCCGGTAATCCGTATTTGGA (site GACCAATCTAA) | 0
CTAGCTGCATGGACCGGTTTTCCCGGTAATCCGTATTTGTG (site ATAGCTGCTCA) | 0.0231

Sequence | recombinant UMI read abundance (log10)
CTAGCTGCATGGACCGGTTTTCCCGGTAATCCGTATTTGTG (site CTAGCTGCTCA) | 1.75
CTAGCTGCATGGACCGGTTTTCCCGGTAATCCGTATTTGTG (site GTAGCTGCTCA) | 0.0102
CTAGCTGCATGGACCGGTTTTCCCGGTAATCCGTATTTGTG (site TTAGCTGCTCA) | 0.0211
CTAGCTTCATGGACCGGTTTTCCCGGTAATCCGTATTTGTG (site CTAGCTTCTCA) | 2.19
CTAGGTGCATGGACCGGTTTTCCCGGTAATCCGTATTTGAT (site CAAGGTGCTAT) | 1.59
CTAGGTGCATGGACCGGTTTTCCCGGTAATCCGTATTTGAT (site CCAGGTGCTAT) | 1.39
CTAGGTGCATGGACCGGTTTTCCCGGTAATCCGTATTTGAT (site CGAGGTGCTAT) | 0.0806
CTAGGTGCATGGACCGGTTTTCCCGGTAATCCGTATTTGAT (site CTAGGTGCTAT) | 2.14
CTAGTAACATGGACCGGTTTTCCCGGTAATCCGTATTTGAC (site CTAGTAACTGT) | 3.1
CTAGTAACATGGACCGGTTTTCCCGGTAATCCGTATTTGAC (site CTAGTACCTGT) | 0
CTAGTAACATGGACCGGTTTTCCCGGTAATCCGTATTTGAC (site CTAGTAGCTGT) | 2.73
CTAGTAACATGGACCGGTTTTCCCGGTAATCCGTATTTGAC (site CTAGTATCTGT) | 1.83
CTAGTCACATGGACCGGTTTTCCCGGTAATCCGTATTTGAC (site CTAGTATCTGT) | 0
CTAGTCACATGGACCGGTTTTCCCGGTAATCCGTATTTGAC (site CTAGTCACTGT) | 2.59
CTAGTTTCATGGACCGGTTTTCCCGGTAATCCGTATTTGAA (site CTAGTATCTGT) | 0
CTAGTTTCATGGACCGGTTTTCCCGGTAATCCGTATTTGAA (site CTAGTTTCTTT) | 1.85
CTAGTTTCATGGACCGGTTTTCCCGGTAATCCGTATTTGCC (site CTAGTATCTGT) | 0
CTAGTTTCATGGACCGGTTTTCCCGGTAATCCGTATTTGCC (site CTAGTTTCTGG) | 2.53
CTATAATCATGGACCGGTTTTCCCGGTAATCCGTATTTGCT (site CGATCATCTAG) | 0
